Reference: US12285487B2, “Liquid topical pharmaceutical nano-emulsion formulations” (JRX BIOTECHNOLOGY, INC., priority 2012, dated 2025)

Key:
Assay type in all cases: physicochemical
[1] = Particle size analysis by laser diffraction of neat API; settings: for Particle Size Mean / Particle Size Median / Particle Size Mode: dispersed in cyclohexane
Source text: For particle size analysis, by laser diffraction (LD), a small sample of the dry powder was dispersed into cyclohexane with sonication and then diluted to an appropriate signal level. The optical microscope was a Zeiss Model Std 25 fitted with a 40× objective. […] The Raman spectrometer was a Horiba XploRA Raman Microscope.

[2] = Optical microscopic examination of neat API dry powder; settings: for estimates of size range by optical microscopy: 400× magnification
Source text: Neat API: For optical microscopic/image analysis examination the material was used as received. A small aliquot was placed on a clean microscope slide and a clean glass coverslip placed on top.
(§1) The optical microscope was a Zeiss Model Std 25 fitted with a 40× objective. The particle size analyzers were the Horiba LA 950 (LD) and a Malvern NanoSizer 90Z (DLS). The Raman spectrometer was a Horiba XploRA Raman Microscope.

[3] = Particle size of aspirin formulation vs dry aspirin (Example 4, DLS Z-average)
Procedure: The particle size of aspirin (dry powder) and the aspirin diluted in the dermal and/or transdermal liquid formulation set forth in Example 1 were compared. Two studies were carried out to determine the particle size (and distribution) of samples of: (i) the formulation of Example 1, lacking only the aspirin (delivery system control), (ii) the formulation of Example 1, including the aspirin (experimental) and (iii) pure (dry) aspirin (control).

[4] = Particle size analysis by Dynamic Light Scattering (Example 8); settings: DLS intensity data
Source text: as §1

Molecule: CC(C(=O)O)c1cccc(C(=O)c2ccccc2)c1 (racemic) [Ketoprofen, (RS)2-(3-benzoylphenyl)-propionic acid]
- size of the majority of particles [1]: about 30 μm
- Particle Size Mean [1]: 34 μm
- Particle Size Median [1]: 27 μm
- Particle Size Mode [1]: 28 μm

Molecule: CC(=O)Nc1ccc(O)cc1 [Acetaminophen, N-acetyl-para-aminophenol]
- Particle Size Mean [1]: 58 μm
- Particle Size Median [1]: 44 μm
- Particle Size Mode [1]: 42 μm
- particle size prior to formulation [2]: 1-100 microns
- estimates of size range by optical microscopy [2]: from around one or two microns (μm) to over 100 μm

Molecule: CC(C)Cc1ccc(C(C)C(=O)O)cc1 (stereo not drawn) [Ibuprofen, iso-butyl-propanoic-phenolic acid]
- Particle Size Mean [1]: 78 μm
- Particle Size Median [1]: 70 μm
- Particle Size Mode [1]: 72 μm
- estimates of size range by optical microscopy [2]: from around 10 μm to over 100 μm

Molecule: COc1ccc2cc(C(C)C(=O)O)ccc2c1 (stereo not drawn) [Naproxen, 2-(6-methoxynaphthalen-2-yl)propanoic acid]
- size of the majority of particles [1]: around 20 μm
- Particle Size Mean [1]: 23 μm
- Particle Size Median [1]: 23 μm
- Particle Size Mode [1]: 19 μm
- estimates of size range by optical microscopy [2]: singlet particles of only a few microns in size and aggregates as large as 100 μm

Molecule: CC(=O)Oc1ccccc1C(=O)O [pure (dry) Aspirin, acetylsalicylic acid]
- size relative to aspirin in the formulation of Example 1 ([3]; dry aspirin vs formulated aspirin): more than 10,000 times
- average particle size ([3]; dry aspirin, prior to formulation): 670 microns

Molecule: Neat Insulin: insulin supplied as an aqueous solution/suspension
- presence of particles as large as [4]: ≤ 5 μm
